The data set in a line: Human HepG2 cell viability assay in 384 well format. It counts as toxicity, cell-based. On the set-up: dose 125 nL, time 70.5 hour; concentration not given beside the values. The note with it: HepG2 cells, read-out: Inhibition.
As to `Cc1cc(C)c(C(=O)Nc2cccc(CN3CCC(CO)CC3)c2)o1`, the cytotoxicity at 70.5 h turned out to be 4.26%.

Regarding `COC(=O)C(C)(C)NC(=O)C1CC(=O)N(CC(C)C)C1` (centres undefined), the cytotoxicity at 70.5 h was -0.314%.

For `CCN1CC(C(=O)NC(C)(C)C(=O)OC)CC1=O` (centres undefined), the cytotoxicity at 70.5 h is 3.17%.

As for `N#Cc1ncn(CCC(=O)Nc2cc(Cl)ccc2Cl)n1`, the cytotoxicity at 70.5 h is -4.2%.

With `COc1ccc(CC(=O)NCCNS(=O)(=O)c2ccc(C)cc2)cc1`, the cytotoxicity at 70.5 h amounted to 2.16%.

For the compound `COc1ccc(OCCN(C)C(=O)c2ccc(OC)cc2O)cc1`, the cytotoxicity at 70.5 h was -9.58%.

For `CC(c1cccnc1)N1CCN(CCc2ccccn2)CC1` (centres undefined), the cytotoxicity at 70.5 h is -0.575%.

Turning to `c1ccn2c(SCC3CN=C(N4CCOCC4)S3)ncc2c1` (centres undefined), the cytotoxicity at 70.5 h came out at 19.3%.

Turning to `COc1ccc(CNC(C)c2cn[nH]c2C)cc1` (centres undefined), the cytotoxicity at 70.5 h amounted to 14.1%.

`CC(C)c1nc(C2CCCN2C(=O)CN(C)Cc2ccccc2)no1` (centres undefined): the cytotoxicity at 70.5 h came out at 11.3%.

In the case of `Cc1n[nH]c(SCC(=O)NC(c2ccncc2)C(C)C)n1` (centres undefined), the cytotoxicity at 70.5 h came to 21%.

As to `CC(C)c1cccc(CSc2nnc(Cn3cncn3)o2)n1`, the cytotoxicity at 70.5 h was -7.35%.

Regarding `CCN(Cc1ccoc1)C(C(N)=O)c1cccc(Br)c1` (centres undefined), the cytotoxicity at 70.5 h is -7.25%.

In the case of `CNC(=O)CCN1CCCCCC1c1ccc(C)o1` (centres undefined), the cytotoxicity at 70.5 h worked out at 13.3%.

`CCN(C(C)=O)c1nc(CN2CCN(c3nccs3)CC2)cs1`: the cytotoxicity at 70.5 h stood at 23.5%.

Take `CC(C)c1nnc(NC(=O)CCc2cc(F)ccc2F)[nH]1`: the cytotoxicity at 70.5 h is -16.3%.

Consider `Cc1cn2nc(N3CCCC3C(=O)N3CCOCC3)sc2n1` (centres undefined), for which the cytotoxicity at 70.5 h is -15.3%.

For the compound `Cc1nnc(N2CCNCC2)c(C(N)=O)c1C`, the cytotoxicity at 70.5 h was -16.9%.

As to `O=C(NCc1cccc(F)c1)Nc1ccn(CCN2CCOCC2)n1`, the cytotoxicity at 70.5 h is -4.92%.

Regarding `O=C(NCc1ccccc1F)Nc1ccn(CCN2CCOCC2)n1`, the cytotoxicity at 70.5 h is -15.3%.

`Cc1ccc(C2CCCCCN2CCNS(C)(=O)=O)o1` (centres undefined): the cytotoxicity at 70.5 h is -5.05%.

Turning to `CC(C)c1cc(CNC(=O)Nc2cc(F)cc(N3CCCC3)c2)on1`, the cytotoxicity at 70.5 h came out at 17.1%.

Regarding `CCc1cc(CNC(=O)Nc2cc(F)cc(N3CCCC3)c2)on1`, the cytotoxicity at 70.5 h is -11.5%.

Take `CN(Cc1ccc([S+](C)[O-])cc1)c1cncc(Cl)n1` (centres undefined): the cytotoxicity at 70.5 h was -15.4%.

Turning to `CCCc1cc(C(=O)Nc2nc(SC)ns2)[nH]n1`, the cytotoxicity at 70.5 h was -4.32%.

On to `CCOc1cccc(NC(=O)Cc2cccc(O)c2)n1`, for which the cytotoxicity at 70.5 h turned out to be 16.2%.

For the compound `CC(C)(C)OC(=O)NC1CCC(NC(=O)c2ccc[nH]2)CC1` (centres undefined), the cytotoxicity at 70.5 h is -6.62%.

As for `O=C1CCc2cc(S(=O)(=O)NC(=O)c3ccc4c(c3)CCO4)ccc2N1`, the cytotoxicity at 70.5 h was -1.87%.

For `O=c1[nH]nc2n1CCN(S(=O)(=O)c1ccccc1Cl)C2`, the cytotoxicity at 70.5 h was -7.03%.

Consider `CCCc1nnnn1Cc1cn2c(C)cccc2n1`, for which the cytotoxicity at 70.5 h was -2.3%.

As to `CNC(=O)COc1ccccc1CNCc1c(C)noc1C`, the cytotoxicity at 70.5 h is -3.67%.

With `Cc1cc(CNC(=O)CC2CN(C(=O)OC(C)(C)C)C2)ccc1F`, the cytotoxicity at 70.5 h is -9.79%.

Regarding `CN(Cc1ccc([S+](C)[O-])cc1)c1ccc(Br)cn1` (centres undefined), the cytotoxicity at 70.5 h is -0.515%.

For `Cc1ccc(C2CCCCCN2CCCS(C)(=O)=O)o1` (centres undefined), the cytotoxicity at 70.5 h was -10.5%.

Turning to `CCOc1cccc(CCNC(=O)Cc2ccccc2O)n1`, the cytotoxicity at 70.5 h was -14.9%.

In the case of `O=C(CN1CCC2(CCCCC2)C1)NCC(F)(F)F`, the cytotoxicity at 70.5 h is -9.38%.

With `CSc1ccc(NC(=O)COCc2ccccc2)nc1`, the cytotoxicity at 70.5 h came out at 15%.

Turning to `CCCn1nnnc1CSCc1cn2c(C)cccc2n1`, the cytotoxicity at 70.5 h is -12.9%.

Turning to `CCCC(C)(C)NC(=O)c1cnc(CC)s1`, the cytotoxicity at 70.5 h was -1.12%.

For the compound `CCc1ncc(C(=O)NC(C)(C)C(=O)OC)s1`, the cytotoxicity at 70.5 h came to 12.2%.

In the case of `Cn1nnnc1SCCC(=O)NCC(C)(C)c1ccccc1F`, the cytotoxicity at 70.5 h amounted to 19.1%.

For the compound `CC(C)(CNC(=O)CSc1nnnn1C1CC1)c1ccccc1F`, the cytotoxicity at 70.5 h was -7.67%.

Regarding `COCCCSc1ccc(NC(=O)Nc2cn[nH]c2)cc1`, the cytotoxicity at 70.5 h amounted to 18.2%.

Consider `N#Cc1ccc(N2CCN(c3cnccn3)CC2)cc1C(F)(F)F`, for which the cytotoxicity at 70.5 h stood at 24.7%.

Take `Cc1nc2n(n1)CCN(S(=O)(=O)c1ccc(OC(F)(F)F)cc1)C2`: the cytotoxicity at 70.5 h is -1.32%.

Take `Cc1nc2n(n1)CCN(S(=O)(=O)c1ccc(Cl)cc1)C2`: the cytotoxicity at 70.5 h was -3.28%.

In the case of `Cn1cc(S(=O)(=O)NCCc2nnc3ccccn23)cn1`, the cytotoxicity at 70.5 h was -4.25%.

In the case of `O=C(Nc1cc(Cl)ccc1Cl)NC1CCN(C2CCOC2)CC1` (centres undefined), the cytotoxicity at 70.5 h came out at 25.3%.

As for `O=C(c1ccc[nH]1)N(Cc1ccc(O)cc1)CC1CC1`, the cytotoxicity at 70.5 h was 20.8%.

Regarding `CN(C)C1CN(C(=O)Nc2cccc(OC(F)F)c2)C1`, the cytotoxicity at 70.5 h turned out to be 17.6%.

`CN(C)c1cccc(CNC(=O)Nc2ccc3[nH]nnc3c2)n1`: the cytotoxicity at 70.5 h is -2.68%.

Consider `CC(C)Cn1cnc(S(=O)(=O)NCCc2nnc3ccccn23)c1`, for which the cytotoxicity at 70.5 h was determined as 15.7%.

In the case of `CS(=O)(=O)N1CCC(OCCCc2ccccc2)C1` (centres undefined), the cytotoxicity at 70.5 h worked out at 3.28%.

As for `COCCN(Cc1ccccc1)Cc1nc(-c2ccsc2)no1`, the cytotoxicity at 70.5 h was -3.79%.

On to `Cc1cnn(CC2CCCCN2c2ncnc3ccccc23)c1` (centres undefined), for which the cytotoxicity at 70.5 h was -5.59%.

As to `Cc1nc(CNC(C(=O)N2CCOCC2)c2ccccc2)cs1` (centres undefined), the cytotoxicity at 70.5 h was -6.01%.

Take `Cc1cnn(CC2CCCN2c2ncnc3ccccc23)c1` (centres undefined): the cytotoxicity at 70.5 h turned out to be 9.14%.

For the compound `Cc1cccc(OCCNC(=O)C(C)S(=O)(=O)c2ccccn2)c1` (centres undefined), the cytotoxicity at 70.5 h was -2.85%.

As for `CN(C)S(=O)(=O)c1ccc(CNC(=O)C2CC2)cc1`, the cytotoxicity at 70.5 h came out at 1.13%.

For the compound `O=C(CN1CCS(=O)(=O)CC1)NCc1cccc(Br)c1`, the cytotoxicity at 70.5 h is -2.1%.

As to `Cn1cnnc1CNC(=O)C1CCCN(Cc2ccccc2)C1` (centres undefined), the cytotoxicity at 70.5 h worked out at 0.292%.

Consider `N#CC1(NC(=O)Cn2nnc(-c3cc4ccccc4o3)n2)CCCC1`, for which the cytotoxicity at 70.5 h is -11.5%.

`Cc1nc(NC(=O)C2CCCN(C(N)=O)C2)sc1-c1ccccc1` (centres undefined): the cytotoxicity at 70.5 h was 28.7%.

Consider `COCCCNC(=O)Cn1nnc(-c2cc3ccccc3o2)n1`, for which the cytotoxicity at 70.5 h was -13.2%.

Consider `Cc1ccc(Cl)cc1S(=O)(=O)NCc1cnc(N(C)C)n1C`, for which the cytotoxicity at 70.5 h is -11.7%.

Turning to `Cc1c(Cl)cccc1S(=O)(=O)NCc1cnc(N(C)C)n1C`, the cytotoxicity at 70.5 h is -8.26%.

As to `Nc1cc2c(nn1)CCN(C(=O)c1ccc(-c3ccco3)[nH]c1=O)C2`, the cytotoxicity at 70.5 h is -1.23%.

With `Cc1nc(C)c(CNCC2CCCn3ccnc32)s1` (centres undefined), the cytotoxicity at 70.5 h worked out at 15.5%.

Consider `CC(NC(=O)N1CCC[C@H]1CO)c1noc(-c2ccccc2)n1` (some centres undefined), for which the cytotoxicity at 70.5 h was -3.8%.

For `Cc1cccc(N(CC(=O)N2CCCCC2)Cc2nc(=O)[nH][nH]2)c1`, the cytotoxicity at 70.5 h was -0.474%.

As for `COC(=O)N1CCCN(C(=O)NC2CCc3ccccc3C2)CC1` (centres undefined), the cytotoxicity at 70.5 h is -1.7%.

On to `Cc1nsc(N2CCN(C(=O)Nc3cccc(F)c3)CC2)n1`, for which the cytotoxicity at 70.5 h is 13.5%.

In the case of `CC1CCCN(c2ccccc2OCC(=O)NC2CC2)C1` (centres undefined), the cytotoxicity at 70.5 h was determined as 2.91%.

For the compound `CCNC(=O)COc1ccccc1N1CCCC(C)C1` (centres undefined), the cytotoxicity at 70.5 h was -1.31%.

Take `CN(Cc1ccccc1F)C(=O)c1ccoc1`: the cytotoxicity at 70.5 h is -4.97%.

As to `OC(CN1CCCc2cc(OC(F)F)ccc21)Cn1cccn1` (centres undefined), the cytotoxicity at 70.5 h amounted to 12.9%.

Turning to `Cc1csc(C(C)(C)NCC(=O)N2CCCC(C(N)=O)C2)n1` (centres undefined), the cytotoxicity at 70.5 h stood at 6.15%.

In the case of `OC(CN1CCCc2ccc(F)cc21)Cn1cccn1` (centres undefined), the cytotoxicity at 70.5 h was determined as 7.05%.

For `C=C(C)COCCNC(=O)N1CCc2c(cccc2OC)C1`, the cytotoxicity at 70.5 h was determined as 7.17%.

With `CC(Cn1ccnc1)NS(=O)(=O)Cc1ccc(F)cc1` (centres undefined), the cytotoxicity at 70.5 h is -2.62%.

Turning to `Cc1cc(Br)c(O)c(C(=O)N2CCC(CN3CCCCCC3)CC2)c1`, the cytotoxicity at 70.5 h was -5.82%.

As for `Clc1ccc(CN2CCN(Cn3nccc3-c3cccnc3)CC2)s1`, the cytotoxicity at 70.5 h was found to be 6.58%.

In the case of `COC(=O)c1cccc(S(=O)(=O)NC(=O)c2ccccc2F)c1`, the cytotoxicity at 70.5 h was -5.66%.

In the case of `Cc1nc(C(=O)Nc2cc(N3CCNC3=O)ccc2Cl)cs1`, the cytotoxicity at 70.5 h was -2.48%.

With `N#Cc1c(F)cccc1NCCCOCC1CCOCC1`, the cytotoxicity at 70.5 h is -3.66%.

`CSc1ccc(OC(C)C(=O)Nc2cc[nH]n2)cc1` (centres undefined): the cytotoxicity at 70.5 h was -2.7%.

In the case of `Cc1noc2ncc(S(=O)(=O)Nc3cc(C(C)(C)C)n[nH]3)cc12`, the cytotoxicity at 70.5 h is -4.7%.

With `CSc1ccc(OC(C)C(=O)Nc2c(C)n[nH]c2C)cc1` (centres undefined), the cytotoxicity at 70.5 h was -3.26%.

For `O=C(NS(=O)(=O)c1cccc(F)c1)c1ccccc1F`, the cytotoxicity at 70.5 h worked out at 13.1%.

For `CC(C)(C(=O)NCc1n[nH]c(=O)[nH]1)c1ccc(F)cc1`, the cytotoxicity at 70.5 h is -2.39%.

With `COCC(NC(=O)NCc1ccc(C)c(F)c1)c1ccco1` (centres undefined), the cytotoxicity at 70.5 h came out at 1.44%.

For the compound `COCC(NC(=O)NCc1cccc(C#N)c1)c1ccco1` (centres undefined), the cytotoxicity at 70.5 h was -2.38%.

On to `CCNC(=O)C1CCCN(c2ccc(C#N)cc2C(F)(F)F)C1` (centres undefined), for which the cytotoxicity at 70.5 h was -4.1%.

Regarding `COC(C)(C)CC(C)NC(=O)Nc1ccccn1` (centres undefined), the cytotoxicity at 70.5 h was -2.34%.

Consider `Cc1csc(C(C)(C)NCC(=O)N2CCCC(C(F)(F)F)C2)n1` (centres undefined), for which the cytotoxicity at 70.5 h came out at 8.68%.

For the compound `CC(C)OCCOCC(O)CN(C)C(=O)Nc1ccc(F)cc1Cl` (centres undefined), the cytotoxicity at 70.5 h was -2.75%.

Turning to `CC(C)(C)C(=O)N1CCN(Cn2nccc2-c2cccnc2)CC1`, the cytotoxicity at 70.5 h was -3.16%.

`CC(C)C(C)(O)CNC(=O)Nc1ccccn1` (centres undefined): the cytotoxicity at 70.5 h was -1.52%.

On to `CCC[C@@H](NC(N)=O)C(=O)N1CCc2ccccc2CC1`, for which the cytotoxicity at 70.5 h was -3.57%.

Take `CN(CC1CC1)C(=O)Cc1csc(-c2ncccn2)n1`: the cytotoxicity at 70.5 h stood at 0.625%.

For `NC(=O)CN(C(=O)c1cccc(C(F)(F)F)c1)C1CCCC1`, the cytotoxicity at 70.5 h is -6%.

Regarding `Cc1nc(CNC(C)c2cccc(N3CCCC3=O)c2)cs1` (centres undefined), the cytotoxicity at 70.5 h was -7.67%.

For the compound `CCc1nc(CNC(C)c2cccc(N3CCCC3=O)c2)cs1` (centres undefined), the cytotoxicity at 70.5 h was -12.3%.

For `CC(C)NCc1nc(-c2ccc3c(c2)OCO3)c[nH]1`, the cytotoxicity at 70.5 h is -11.7%.

For the origin of these results see ChEMBL document CHEMBL3507680, “University of Dundee, Gates Library screen for HepG2 cell viability”.
